Measurements from paper PMC10571957, “αV-Integrin-Dependent Inhibition of Glioblastoma Cell Migration, Invasion and Vasculogenic Mimicry by the uPAcyclin Decapeptide” (Cancers, 2023).
Where “and” joins values, the source holds several entries; their conditions need not be identical. Equal entries are not always repeated.

How the values were obtained:
[1] = test system: U138-MG cells; assay: Boyden chamber migration (chemotaxis), U138-MG; assay type: cell-based, human; settings: for migration, % of basal, average 2 expts: mean of 2 expts; for migration, % of basal, average expt 1: mean of expt 1; for migration, % of basal, average expt 2: mean of expt 2; for migration, % of basal, T-test list: single replicates of both expts
Method: The migration and invasion assays were performed using Boyden chambers and 8 µm pore size PVP-free filters coated with 50 µg/mL of collagen type VI (Sigma), as previously described. For the invasion assays, collagen-coated filters were further coated with 50 µg/mL Matrigel^TM (Sigma). Briefly, 11 × 10^4 U87-MG, 4 × 10^4 U251-MG, or 4 × 10^4 U138-MG/sample were pre-treated for 40 min at 37 °C with the indicated effectors. Then, the cells were allowed to migrate for 3 h or to invade for 5 h at 37 °C toward 5% FBS in DMEM/0.1% BSA. At the end of both assays, the cells on the lower filter surface were fixed, stained with haematoxylin, and counted under an optical microscope (Zeiss Axiophot, Carl Zeiss, Milan, Italy) at 20× magnification. The migration and invasion experiments were conducted in triplicate for U87-MG and in duplicate for U251-MG and U138-MG. The migrated or invaded cells were reported as percentage of basal migration or invasion in the presence of DMEM/0.1% BSA, taken as 100%, and analyzed as reported in Section 2.11.
Figure 3 Inhibition of U87-MG, U251-MG, and U138-MG GBM cellular migration by uPAcyclin. Quantitative analysis of U87-MG (A), U251-MG (B), and U138-MG (C) directional migration. A total of 11 × 10^4 U87-MG/sample or 4 × 10^4 U251-MG or U138-MG/sample were pre-treated for 40 min at 37 °C with uPAcyclin or S-peptide at the indicated concentrations, anti-αV polyclonal (anti-αV Pclonal) or monoclonal (anti-αV MoAb) antibody, or anti-GAPDH, and anti-α2 monoclonal antibody (anti-α2 MoAb), and then assayed in Boyden chambers at 37 °C, either for basal (BSA) or directional 5% FBS-dependent migration for 3 h at 37 °C. At the end of incubation, the filters were processed as described in Methods. Basal migration was taken as 100% and all values were calculated relative to that (* p-value < 0.05; ** p-value < 0.005; *** p-value < 0.001).

[2] = test system: C6 cells; assay: Vasculogenic mimicry (tube formation on Geltrex), C6; assay type: cell-based, rat; settings: C6, 16 h
Method: The tube formation assay was performed in 96-well plates pre-coated with 50 µL/well of Geltrex^TM (Thermofisher, Scientific, Waltham, MA, USA), and polymerized for 30 min at 37 °C. Briefly, 3 × 10^4 U87-MG, 1.5 × 10^4 U251, and 1 × 10^4 C6 cells/100µL/well were plated onto Geltrex^TM and monitored at 37 °C for the indicated times. The specific effectors were included at time 0. The formation of vascular-like structures by Geltrex^TM-plated U87-MG and U251-MG cells was monitored for 24 h, whereas C6 cells were tested for 16 h. The evaluation of the branching point number, defined as the intersection of at least 3 tubes [24], was performed using the Inverted Microscope DMI Leica 6000 for the U87-MG and U251-MG cells and the Inverted Microscope Axiovert 25 for the C6 cells. At the indicated times, the number of “branching points” was assessed in 4/5 random fields using the ImageJ 1.52a Software.
Figure 7 Vascular mimicry formation by C6 rat cells and inhibition by uPAcyclin. […] (B) After 16 h, the number of branching points was evaluated as described in the legend to Figure 5 and reported in the relative histogram (*** p-value < 0.001).

[3] = test system: C6 cells; assay: Wound healing assay, C6; assay type: cell-based, rat
Method: The wound healing assay or scratch test was performed as previously reported. Briefly, 6 × 10^3 U87-MG cells were seeded in multiwell-12 plates containing culture inserts for live cell analysis (Ibidi, Gmbh, Martinsried, Germany) and grown to confluence in DMEM/10% FBS for 24 h. After removing the inserts, the cells were pre-treated for 40 min at 37 °C with uPAcyclin or diluents at the indicated concentrations, and then incubated in DMEM/3% FBS for 24 h. The images were taken using the Inverted Microscope Leica DMI6000 DFC 402 (Leica Microsystems, Milan, Italy). A total of 10 × 10^4 C6 cells were grown to confluence in 12-well plates, in the presence of DMEM/10% FBS. […] To quantitate cell migration, a rectangle covering the wound edges is drawn on the T0 image and is further applied to the single photograms of each sample. The average margin distance is measured at three points and the results are expressed as percentage wound width of the T0 distance, taken as 100%.
Figure 5 Wound healing assay of U87-MG and C6 cells, in the presence of uPAcyclin. […] (C) For both U87-MG and C6, the wound width at time 0 is taken as 100% and the wound width at T24 or T16 is calculated as relative to that (* p-value < 0.05; ** p-value < 0.005; *** p-value < 0.001).

[4] = 1 nM, 5% FBS, 3 h, expt 1, duplicates
[5] = 1 nM, 5% FBS, 3 h, expt 2, duplicates
[6] = 100 nM, 5% FBS, 3 h, expt 1, duplicates
[7] = 100 nM, 5% FBS, 3 h, expt 2, duplicates

Ac-K^1P[ESPPEELK^10]-NH2 (sidechain bridge or staple) [uPAcyclin]
inhibition of migration ([1]; 1 nM, U138-MG, 5% FBS, 3 h): 70–80%
migrated cells n°/field [1, 4]: 8 cells n°/field and 7 cells n°/field
migration, % of basal [1, 4]: 114% and 100%
migrated cells n°/field [1, 5]: 8 cells n°/field and 10 cells n°/field
migration, % of basal [1, 5]: 100% and 125%
migration, % of basal, average 2 expts ([1]; 1 nM, 5% FBS, 3 h): 110%
migration, % of basal, average expt 1 ([1]; 1 nM, 5% FBS, 3 h): 107%
migration, % of basal, average expt 2 ([1]; 1 nM, 5% FBS, 3 h): 113%
migration, % of basal, T-test list ([1]; 1 nM): 114 and 100 and 125
migration, in words ([1]; 100 nM, U138-MG, 5% FBS, 3 h): below background levels
migrated cells n°/field [1, 6]: 7 cells n°/field and 5 cells n°/field
migration, % of basal [1, 6]: 100% and 71%
migrated cells n°/field [1, 7]: 6 cells n°/field and 7 cells n°/field
migration, % of basal [1, 7]: 75% and 88%
migration, % of basal, average 2 expts ([1]; 100 nM, 5% FBS, 3 h): 84%
migration, % of basal, average expt 1 ([1]; 100 nM, 5% FBS, 3 h): 86%
migration, % of basal, average expt 2 ([1]; 100 nM, 5% FBS, 3 h): 82%
migration, % of basal, T-test list ([1]; 100 nM): 100 and 71 and 75 and 88
inhibition of branching point number ([2]; 10 pM): 40%
inhibition of branching point number ([2]; 100 nM): 60%
wound closure, in words ([3]; 10 pM or 100 nM, C6, 16 h): dose-dependent inhibition of wound closure
reduction of wound healing rate closure ([3]; C6, abstract): 50%
